Reference: ChEMBL document CHEMBL1125480, “Studies on antidiabetic agents. 11. Novel thiazolidinedione derivatives as potent hypoglycemic and hypolipidemic agents” (1992)

How the values were obtained:
Assay type in all cases: functional
Mus musculus [1] = organism: Mus musculus; experiment: Effective dose to reduce 25% of triglyceride levels in plasma
Mus musculus [2] = organism: Mus musculus; experiment: (§1) Effective dose to reduce 25% of glucose levels in blood; conditions: Mus musculus, Blood
Mus musculus [3] = organism: Mus musculus; experiment: Compound was tested for maximum reduction in plasma triglyceride levels in KKA mice at a dosage of 0.05% in diet
Mus musculus [4] = organism: Mus musculus; experiment: Compound was tested for maximum reduction in blood glucose levels in KKA mice at a dosage of 0.05% in diet
Mus musculus [5] = organism: Mus musculus; experiment: Compound was tested for maximum reduction in plasma triglyceride levels in KKA mice at a dosage of 0.01% in diet
Mus musculus [6] = organism: Mus musculus; experiment: Compound was tested for maximum reduction in blood glucose levels in KKA mice at a dosage of 0.01% in diet
[7] = as §1; conditions: Mus musculus
Mus musculus [8] = organism: Mus musculus; experiment: Maximum reduction in plasma triglyceride levels in KKA mice at a dosage of 0.001% in diet
Mus musculus [9] = organism: Mus musculus; experiment: Maximum reduction in blood glucose levels in KKA mice at a dosage of 0.005% in diet
Mus musculus [10] = organism: Mus musculus; experiment: Maximum reduction in blood glucose levels in KKA mice at a dosage of 0.001% in diet
Mus musculus [11] = organism: Mus musculus; experiment: Maximum reduction in plasma triglyceride levels in KKA mice at a dosage of 0.005% in diet

Compound	ED25 (Mus musculus [1])	ED25 (Mus musculus [2])	Reduction (Mus musculus [3])	Reduction (Mus musculus [4])	Reduction (Mus musculus [5])	Reduction (Mus musculus [6])	ED25 [7]	Reduction (Mus musculus [8])	Reduction (Mus musculus [9])	Reduction (Mus musculus [10])	Reduction (Mus musculus [11])
O=C1NC(=O)C(Cc2ccc(OCCc3coc(-c4ccccc4)n3)cc2)S1 (configuration not stated)	0.5 mg/kg/day	0.3 mg/kg/day	68%	58%	51%	41%	–	–	–	–	–
Cc1oc(-c2ccco2)nc1CCOc1ccc(CC2SC(=O)NC2=O)cc1 (configuration not stated)	0.9 mg/kg/day	–	–	–	–	–	0.4 mg/kg/day	41%	50%	50%	69%
